Reference: BindingDB's records for doi:10.1021/jm00059a006 (Ura Cnrs 1309, 1993)

Experiment: Effective concentration that reduces HIV-induced cytopathic effect by 50% was determined by reverse transcriptase (RT) assay.

Row | EC50 [µM] | Compound
1 | 0.08 | CCCCCCCCCCCCCCCC(=O)OCC1C=CC(n2cc(C)c(=O)[nH]c2=O)O1 (stereo not given) [Hexadecanoic acid 5-(5-methyl-2,4-dioxo-3,4-dihydro-2H-pyrimidin-1-yl)-2,5-dihydro-furan-2-ylmethyl ester]
2 | 0.05 | Cc1cn(C2C=CC(COP(=O)(O)OCC3C=CC(n4cc(C)c(=O)[nH]c4=O)O3)O2)c(=O)[nH]c1=O (stereo not given) [Phosphoric acid bis-[5-(5-methyl-2,4-dioxo-3,4-dihydro-2H-pyrimidin-1-yl)-2,5-dihydro-furan-2-ylmethyl] ester]
3 | 0.2 | CCCCCCCCCCCCCCCCOP(=O)(O)OCC1C=CC(n2cc(C)c(=O)[nH]c2=O)O1 (stereo not given) [Phosphoric acid hexadecyl ester 5-(5-methyl-2,4-dioxo-3,4-dihydro-2H-pyrimidin-1-yl)-2,5-dihydro-furan-2-ylmethyl ester]

Second part, the compound before the results:

Row | Compound | EC50 [µM]
4 | Cc1cn([C@H]2C[C@H](N=[N+]=[N-])[C@@H](CO)O2)c(=O)[nH]c1=O [1-((2R,4S,5S)-4-Azido-5-hydroxymethyl-tetrahydro-furan-2-yl)-5-methyl-1H-pyrimidine-2,4-dione] | 0.01
5 | Cc1cn([C@H]2C=C[C@@H](CO)O2)c(=O)[nH]c1=O [2',3'-didehydro-3'-deoxythymidine] | 0.05
